Where a name gives a salt, the structure may show the parent alone.
Assays:
recombinant caspase 3 = target: T1, recombinant caspase 3 (Homo sapiens, UniProt P42574); assay: Caspase 3 Inhibition Assay (Ac-DEVD-AFC fluorogenic substrate cleavage); format: biochemical; conditions: pH 7.2, 23° C.; for IC50: recombinant caspase 3 0.25 nM, Ac-DEVD-AFC 25 μM; for inhibition at 50 µM: @ 50 μM compound, recombinant caspase 3, Ac-DEVD-AFC 25 μM, read-out: percent inhibition at the highest compound concentration
T1 construct: His tag (C); made in house; host or cells: E. coli
T1 sequence (P42574 29-175 limits assumed): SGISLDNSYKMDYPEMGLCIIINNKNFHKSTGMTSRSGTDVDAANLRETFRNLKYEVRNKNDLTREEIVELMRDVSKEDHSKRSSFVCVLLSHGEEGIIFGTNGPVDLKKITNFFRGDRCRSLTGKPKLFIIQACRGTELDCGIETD
T1 sequence (P42574 176-277 limits assumed): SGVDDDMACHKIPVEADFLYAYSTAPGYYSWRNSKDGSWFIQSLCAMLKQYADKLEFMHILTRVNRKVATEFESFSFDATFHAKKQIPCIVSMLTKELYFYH
Method: Caspase 3 was expressed intracellularly in E. coli with a c-terminal His tag. Fermentation was performed at 25° C. in a B. Braun Biotech Biostat C 10 liter bioreactor vessel. The culture was collected in IL bottles and centrifuged in Komspin KA-7.1000 rotors at approximately 8000 RCF (Relative Centrifugal Force). The cell pellets were re-suspended in 20 mM Tris pH 8.0, 500 mM NaCl, and 5 mM imidazole. The cell suspension was disrupted by passing 5 times through a microfluidizer Model 110Y (Microfluidics Corp, Newton, Mass). After centrifugation (13 kg, 30 min at 4 C), the supernatant was applied to a column of Nickle-NTA agarose. The Caspase 3 was eluted with a gradient of 5 mM to 150 mM imidazole in the above buffer. Fractions containing Caspase 3 were pooled and concentrated with a Millipore Ultrafree filtration device. The concentrated Caspase 3 solution was loaded unto a TSK gel G3000sw column (Tosoh Bioseph LLC), equilibrated with a buffer of 20 mM PIPES pH 7.2, 100 mM NaCl, 1 mM EDTA & 5 mM Cysteine. Fractions containing Caspase 3 were pooled and concentrated. Sometimes CHAPS was added to 0.1% and sucrose to 10% into the protein sample.
Caspase 3 was assayed at 23° C. (room temp) in 96-well plates using the internally quenched tetrapeptide substrate N-acetyl-aspartyl-glutamyl-valyl-aspartate-7-amino-4-trifluoromethyl coumarin (Ac-DEVD-AFC purchased from Biomol). The assays are conducted at pH 7.2 in a buffered system containing 20 mM PIPES, 100 mM NaCl, 1 mM EDTA, 0.1% CHAPS, 10% sucrose and 5 mM L-cysteine. […] A steady state rate of substrate cleavage is obtained for analysis.
The progress curves generated were fitted by computer to equation 1 to generate an IC50 value. Equation 1: y=Bmax*(1−(x^n/(K^n+x^n))), where Bmax is rate in the absence of inhibitor.

melting point	IC50 (recombinant caspase 3)	inhibition at 50 µM (recombinant caspase 3)	Compound
171.2 to 171.9 °C	–	–	COC[C@@H]1CCCN1S(=O)(=O)c1ccc2c(c1)C(=O)C1=NCC3(CCCC3)CN12
> 270 °C	–	–	Nc1cc2c(cc1Cl)N1CCCN=C1C2=O [Example 16, 8-Amino-7-chloro-3,4-dihydropyrimido[1,2-a]indol-10(2H)-one]
200 to 201 °C	9 nM	–	CC1(C)CN=C2C(=O)c3cc(S(=O)(=O)N4CCCC4)ccc3N2C1 [Example 12, 3,3-Dimethyl-8-(pyrrolidin-1-ylsulfonyl)-3,4-dihydropyrimido[1,2-a]indol-10(2H)-one]
169.8 to 170.8 °C	16 nM	–	CC1(C)CN=C2C(=O)c3cc(S(=O)(=O)N4CCc5ccccc54)ccc3N2C1 [Example 32, 8-(2,3-Dihydro-1H-indol-1-ylsulfonyl)-3,3-dimethyl-3,4-dihydropyrimido[1,2-a}indol-10(2H)-one]
161 to 164 °C	–	–	COC[C@H]1CCCN1S(=O)(=O)c1ccc2c(c1)C(=O)C1=NCC(C)(C)CN12
153 to 154 °C	–	–	CC1(C)CN=C2C(=O)c3cc(Cl)ccc3N2C1 (hydrate or solvate) [Example 14, 8′-Chloro-3′,3′-dimethyl-3′,4′-dihydropyrimido[1,2-a]indol-10(2H)-one]
159 to 160 °C	–	–	O=C1C2=NCCCN2c2ccc(S(=O)(=O)N3CCC[C@H]3COc3ccccc3)cc21 [Example 3]
166 to 168 °C (dec.)	–	72%	O=C1C2=NCCCN2c2ccc(Br)cc21 [Example 9, 8-Bromo-3,4-dihydropyrimido[1,2-a]indol-10(2H)-one]
173.4 to 175 °C	555 nM	–	COC[C@@H]1Cc2ccccc2N1S(=O)(=O)c1ccc2c(c1)C(=O)C1=NCC(C)(C)CN12 [Example 33, 8-{[(2S)-2-(Methoxymethyl)-2,3-dihydro-1H-indol-1-yl]sulfonyl}-3,3-dimethyl-3,4-dihydropyrimido[1,2-a]indol-10(2H)-one]
127 to 130 °C	–	–	COC[C@@H]1CCCN1S(=O)(=O)c1cc2c(cc1Cl)N1CCCN=C1C2=O (hydrate or solvate) [Example 5, 7-Chloro-8-{[(2S)-2-(methoxymethyl)pyrrolidin-1-yl-]sulfonyl}-3,4-dihydropyrimido[1,2-a]indol-10(2H)-one]
152.5 to 153 °C	15 nM	–	CC1CCN2C(=N1)C(=O)c1cc(S(=O)(=O)N3CCCC3)ccc12 (stereo not shown) [Example 87]
170 to 183 °C (dec.)	1270 nM	–	CNS(=O)(=O)c1ccc2c(c1)C(=O)C1=NCCCN12 [Example 7, N-Methyl-10-oxo-2,3,4,10-tetrahydropyrimido[1,2-a]indole-8-sulfonamide]
155 to 168 °C	–	–	O=C(Nc1ccc2c(c1)C(=O)C1=NCCCN12)c1ccccc1 (as salt: trifluoroacetic acid salt) [Example 17, N-(10-Oxo-2,3,4,10-tetrahydropyrimido[1,2-a]indol-8-yl)benzamide trifluoroacetic acid salt]
171 to 172 °C	27 nM	–	COC[C@@H]1CCCN1S(=O)(=O)c1ccc2c(c1)C(=O)C1=NCCCN12 [Example 1, 8-{[(2S)-2-(Methoxymethyl)pyrrolidin-1-yl]sulfonyl}-3,4-dihydropyrimido[1,2-a]indol-10(2H)-one]
162.9 to 163.6 °C	14 nM	–	O=C1C2=NCC3(CCCC3)CN2c2ccc(S(=O)(=O)N3CCC[C@H]3CN3CCOCC3)cc21 [Example 83, 8′-{[(2S)-2-(morpholin-4-ylmethyl)pyrrolidin-1-yl]sulfonyl}spiro[cyclopentane-1,3′-pyrimido[1,2-a]indol]-10′(2′H)-one]
91 to 96 °C (dec.)	25 nM	–	CC1(C)CN=C2C(=O)c3cc(S(=O)(=O)N4CCC[C@H]4CO)ccc3N2C1 [Example 8, 8-{[(2S)-2-(Hydroxymethyl)pyrrolidin-1-yl]sulfonyl}-3,3-dimethyl-3,4-dihydropyrimido[1,2-a]indol-10(2H)-one]
152 °C	–	–	COc1ccc2c(c1)C(=O)C1=NCCCN12 (hydrate or solvate) [Example 11, 8-Methoxy-3,4-dihydropyrimido[1,2-a]indol-10(2H)-one]
152 to 165 °C	–	–	O=C1C2=NCCCN2c2cc(Cl)c([N+](=O)[O-])cc21 (hydrate or solvate) [Example 15, 7-Chloro-8-nitro-3,4-dihydropyrimido[1,2-a]indol-10(2H)-one]
178 to 184 °C	–	–	CC1(C)CN=C2C(=O)c3cc(C#N)ccc3N2C1 (hydrate or solvate) [Example 20, 3,3-Dimethyl-10-oxo-2,3,4,10-tetrahydropyrimido[1,2-a]indole-8-carbonitrile]
127 to 129 °C	50000 nM	–	CC1CCN=C2C(=O)c3cc(Br)ccc3N21 (stereo not shown) [Example 13, 8-Bromo-4-methyl-3,4-dihydropyrimido[1,2-a]indol-10(2H)-one]
163 to 165 °C	–	–	COC[C@@H]1CCCN1S(=O)(=O)c1ccc2c(c1)C(=O)C1=NCC(C)(C)CN12
73 to 88 °C (dec.)	–	–	CC1(C)CN=C2C(=O)c3cc(S(=O)(=O)N4CCC[C@H]4COc4ccccc4)ccc3N2C1
265 °C (dec.)	–	2%	O=C1C2=NCCCN2c2ccc(O)cc21 [Example 19, 8-Hydroxy-3,4-dihydropyrimido[1,2-a]indol-10(2H)-one]
–	17 nM	–	Cc1ccc(OC[C@@H]2CCCN2S(=O)(=O)c2ccc3c(c2)C(=O)C2=NCC(C)(C)CN23)c(I)n1 [Example 46, 8-[((2S)-2-{[(2-Iodo-6-methylpyridin-3-yl)oxy]methyl}pyrrolidin-1-yl)sulfonyl]-3,3-dimethyl-3,4-dihydropyrimido[1,2-a]indol-10(2H)-one]
150 to 152 °C	–	26%	O=C1C2=NCCCN2c2ccc(F)cc21 [Example 18, 8-Fluoro-3,4-dihydropyrimido[1,2-a]indol-10(2H)-one]
163 to 164 °C	–	–	Cc1ccc2c(c1)C(=O)C1=NCCCN12 (hydrate or solvate) [Example 10, 8-Methyl-3,4-dihydropyrimido[1,2-a]indol-10(2H)-one]
–	–	26%	CC1(C)CN=C2C(=O)c3cc(S(=O)(=O)N4CCC[C@H]4COc4cccnc4Br)ccc3N2C1 [Example 35, 8-[((2S)-2-{[(2-Bromopyridin-3-yl)oxy]methyl}pyrrolidin-1-yl)sulfonyl]-3,3-dimethyl-3,4-dihydropyrimido[1,2-a]indol-10(2H)-one]
–	55 nM	–	CC(=O)c1ccc(OC[C@@H]2CCCN2S(=O)(=O)c2ccc3c(c2)C(=O)C2=NCC(C)(C)CN23)c(C)c1 [Example 27, 8-({(2S)-2-[(4-Acetyl-2-methylphenoxy)methyl]pyrrolidin-1-yl}sulfonyl)-3,3-dimethyl-3,4-dihydropyrimido[1,2-a]indol-10(2H)-one]

From US7256198B2, “Pyrimidoindolones and methods for using same” (Wyeth, priority 2004, dated 2007)
